Results published in ChEMBL document CHEMBL1201862, “PubChem BioAssay data set” (2004).
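48-hour exposure; five concentrations; linearly interpolated endpoints. The concentration for 50% growth inhibition is given as GI50.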 The source made the active and inactive calls. Rule as the data show it: active = GI50 up to about 1.1 µM and inactive = higher.

Legend:
Assay in all cases: NCI-60 cell line screen, 48 h
[1] = system: M14
[2] = system: CAKI-1
[3] = system: DU-145
[4] = system: U-251
[5] = system: OVCAR-5
[6] = system: HCT-116
[7] = system: 786-0
[8] = system: NCI-H23
[9] = system: PC-3
[10] = system: UACC-62
[11] = system: RPMI-8226
[12] = system: NCI-H522
[13] = system: SNB-75
[14] = system: OVCAR-3
[15] = system: KM12
[16] = system: SK-MEL-5
[17] = system: K562
[18] = system: MOLT-4
[19] = system: NCI-H226
[20] = system: SNB-19
[21] = system: NCI-H460
[22] = system: MDA-MB-435
[23] = system: CCRF-CEM
[24] = system: SN12C
[25] = system: UO-31
[26] = system: SF-268
[27] = system: SK-MEL-28
[28] = system: NCI/ADR-RES
[29] = system: LOX IMVI
[30] = system: SW-620
[31] = system: Hs-578T
[32] = system: MCF7
[33] = system: SK-OV-3
[34] = system: IGROV-1
[35] = system: SF-295
[36] = system: HOP-92
[37] = system: SF-539
[38] = system: BT-549
[39] = system: HCC 2998
[40] = system: HT-29
[41] = system: COLO 205
[42] = system: A549
[43] = system: HCT-15
[44] = system: ACHN
[45] = system: HL-60
[46] = system: OVCAR-8
[47] = system: EKVX
[48] = system: T47D
[49] = system: MDA-MB-231
[50] = system: SK-MEL-2
[51] = system: OVCAR-4
[52] = system: TK-10
[53] = system: MDA-N
[54] = system: UACC-257
[55] = system: SR
[56] = system: Malme-3M
[57] = system: A498
[58] = system: HOP-62
[59] = system: RXF 393

COc1ccc(NC(=S)c2ccoc2C)cc1CC(=O)OC(C)C
GI50 [1]: 24.9 µM (inactive) | GI50 [2]: 29.2 µM (inactive) | GI50 [3]: 48.3 µM (inactive) | GI50 [4]: 67 µM (inactive) | GI50 [5]: > 100 µM (inactive) | GI50 [6]: 55.8 µM (inactive) | GI50 [7]: > 100 µM (inactive) | GI50 [8]: 46.2 µM (inactive) | GI50 [9]: 21.9 µM (inactive) | GI50 [10]: 26 µM (inactive) | GI50 [11]: 50.8 µM (inactive) | GI50 [12]: 36.3 µM (inactive) | GI50 [13]: 15.7 µM (inactive) | GI50 [14]: 26.5 µM (inactive) | GI50 [15]: 29.7 µM (inactive) | GI50 [16]: 34.1 µM (inactive) | GI50 [17]: 34.8 µM (inactive) | GI50 [18]: 18.8 µM (inactive) | GI50 [19]: 12.4 µM (inactive) | GI50 [20]: 61.5 µM (inactive) | GI50 [21]: 31.8 µM (inactive) | GI50 [22]: 46.2 µM (inactive) | GI50 [23]: 43.9 µM (inactive) | GI50 [24]: 66.1 µM (inactive) | GI50 [25]: 30.6 µM (inactive) | GI50 [26]: 43.4 µM (inactive) | GI50 [27]: 34.4 µM (inactive) | GI50 [28]: 17.5 µM (inactive) | GI50 [29]: 18.8 µM (inactive) | GI50 [30]: 36.1 µM (inactive) | GI50 [31]: 45.2 µM (inactive) | GI50 [32]: 22 µM (inactive) | GI50 [33]: 54 µM (inactive) | GI50 [34]: 36 µM (inactive) | GI50 [35]: 38.1 µM (inactive) | GI50 [36]: 20.6 µM (inactive) | GI50 [37]: 37.3 µM (inactive) | GI50 [38]: > 10 µM (inactive) | GI50 [39]: 45.5 µM (inactive) | GI50 [40]: 16.7 µM (inactive) | GI50 [41]: 17.7 µM (inactive) | GI50 [42]: 26.4 µM (inactive) | GI50 [43]: 55.2 µM | GI50 [44]: 30.8 µM (inactive) | GI50 [45]: 22.1 µM (inactive) | GI50 [46]: 29 µM (inactive) | GI50 [47]: 25.1 µM (inactive) | GI50 [48]: 24.8 µM (inactive) | GI50 [49]: 81.5 µM (inactive) | GI50 [50]: 18.2 µM (inactive) | GI50 [51]: 30.1 µM (inactive) | GI50 [52]: 33.3 µM (inactive) | GI50 [53]: 31 µM (inactive) | GI50 [54]: 33.4 µM (inactive)

CC1C2CC(C/C2=N/O)C1(C)C (stereo unspecified)
GI50 [1]: > 100 µM (inactive) | GI50 [2]: > 100 µM (inactive) | GI50 [3]: > 100 µM (inactive) | GI50 [4]: > 100 µM (inactive) | GI50 [5]: > 100 µM (inactive) | GI50 [55]: > 100 µM (inactive) | GI50 [6]: > 100 µM (inactive) | GI50 [7]: > 100 µM (inactive) | GI50 [8]: > 100 µM (inactive) | GI50 [9]: > 100 µM (inactive) | GI50 [10]: > 100 µM (inactive) | GI50 [56]: > 100 µM (inactive) | GI50 [12]: > 100 µM (inactive) | GI50 [13]: > 100 µM (inactive) | GI50 [14]: > 100 µM (inactive) | GI50 [15]: > 100 µM (inactive) | GI50 [16]: > 100 µM (inactive) | GI50 [17]: > 100 µM (inactive) | GI50 [18]: > 100 µM (inactive) | GI50 [19]: > 100 µM (inactive) | GI50 [57]: > 100 µM (inactive) | GI50 [20]: > 100 µM (inactive) | GI50 [21]: > 100 µM (inactive) | GI50 [22]: > 100 µM (inactive) | GI50 [23]: > 100 µM (inactive) | GI50 [24]: > 100 µM (inactive) | GI50 [25]: > 100 µM (inactive) | GI50 [26]: > 100 µM (inactive) | GI50 [27]: > 100 µM (inactive) | GI50 [30]: > 100 µM (inactive) | GI50 [31]: > 100 µM (inactive) | GI50 [32]: > 100 µM (inactive) | GI50 [58]: > 100 µM (inactive) | GI50 [33]: > 100 µM (inactive) | GI50 [34]: > 100 µM (inactive) | GI50 [35]: > 100 µM (inactive) | GI50 [36]: > 100 µM (inactive) | GI50 [37]: > 100 µM (inactive) | GI50 [38]: > 100 µM (inactive) | GI50 [39]: > 100 µM (inactive) | GI50 [40]: > 100 µM (inactive) | GI50 [41]: > 100 µM (inactive) | GI50 [42]: > 100 µM (inactive) | GI50 [44]: > 100 µM (inactive) | GI50 [45]: > 100 µM (inactive) | GI50 [46]: > 100 µM (inactive) | GI50 [47]: > 100 µM (inactive) | GI50 [48]: > 100 µM (inactive) | GI50 [49]: > 100 µM (inactive) | GI50 [59]: > 100 µM (inactive) | GI50 [51]: > 100 µM (inactive) | GI50 [52]: > 100 µM (inactive) | GI50 [53]: > 100 µM (inactive) | GI50 [54]: > 100 µM (inactive)

COC(=O)Nc1nc2cc(NC(=O)c3cccs3)ccc2[nH]1
GI50 [1]: 33.7 µM (inactive) | GI50 [2]: 44.9 µM (inactive) | GI50 [3]: 98.9 µM (inactive) | GI50 [4]: 34.2 µM (inactive) | GI50 [5]: 61.8 µM (inactive) | GI50 [6]: 34.4 µM (inactive) | GI50 [7]: 50.9 µM (inactive) | GI50 [8]: 35.4 µM (inactive) | GI50 [9]: 30.2 µM (inactive) | GI50 [10]: 52.2 µM (inactive) | GI50 [11]: 18.8 µM (inactive) | GI50 [56]: 23.4 µM (inactive) | GI50 [13]: 15.7 µM (inactive) | GI50 [14]: 19.2 µM (inactive) | GI50 [15]: 21.6 µM (inactive) | GI50 [16]: 15.6 µM (inactive) | GI50 [17]: 24.3 µM (inactive) | GI50 [18]: 33.7 µM (inactive) | GI50 [19]: > 100 µM (inactive) | GI50 [57]: 11.2 µM (inactive) | GI50 [20]: 32.1 µM (inactive) | GI50 [21]: 40 µM (inactive) | GI50 [22]: 8.57 µM (inactive) | GI50 [23]: 31.3 µM (inactive) | GI50 [24]: 57.1 µM (inactive) | GI50 [25]: 10.1 µM (inactive) | GI50 [26]: 75.3 µM (inactive) | GI50 [27]: 38.5 µM (inactive) | GI50 [28]: 17.9 µM (inactive) | GI50 [29]: 25.9 µM (inactive) | GI50 [30]: 27.5 µM (inactive) | GI50 [31]: 15.1 µM (inactive) | GI50 [32]: 32.1 µM (inactive) | GI50 [58]: 84.9 µM (inactive) | GI50 [33]: 29 µM (inactive) | GI50 [34]: 0.296 µM (active) | GI50 [35]: 29.6 µM (inactive) | GI50 [36]: 1.53 µM (inactive) | GI50 [37]: 21.9 µM (inactive) | GI50 [38]: 55.1 µM (inactive) | GI50 [40]: 33 µM (inactive) | GI50 [41]: 29.6 µM (inactive) | GI50 [42]: 46.9 µM (inactive) | GI50 [43]: 23.9 µM | GI50 [44]: > 100 µM (inactive) | GI50 [45]: 61.7 µM (inactive) | GI50 [46]: 68.7 µM (inactive) | GI50 [47]: 40.3 µM (inactive) | GI50 [48]: 31.3 µM (inactive) | GI50 [49]: 62.1 µM (inactive) | GI50 [59]: 22.8 µM (inactive) | GI50 [50]: 24.9 µM (inactive) | GI50 [51]: 74 µM (inactive) | GI50 [52]: 36.6 µM (inactive) | GI50 [53]: 10.4 µM (inactive)

Oc1ccc(Cl)cc1C1=Nn2c(COc3ccc4c(c3)CCCC4)nnc2SC1
GI50 [1]: 14.2 µM (inactive) | GI50 [2]: 19.4 µM (inactive) | GI50 [3]: 18.3 µM (inactive) | GI50 [4]: 15.3 µM (inactive) | GI50 [5]: 17.2 µM (inactive) | GI50 [6]: 6.56 µM (inactive) | GI50 [8]: 11.4 µM (inactive) | GI50 [9]: 10.6 µM (inactive) | GI50 [10]: 12.4 µM (inactive) | GI50 [11]: 4.99 µM (inactive) | GI50 [56]: > 100 µM (inactive) | GI50 [12]: 6.84 µM (inactive) | GI50 [14]: 12.6 µM (inactive) | GI50 [15]: 14.6 µM (inactive) | GI50 [16]: 5.25 µM (inactive) | GI50 [17]: 10.5 µM (inactive) | GI50 [18]: 11 µM (inactive) | GI50 [57]: 1.49 µM (inactive) | GI50 [20]: 20.7 µM (inactive) | GI50 [21]: 14 µM (inactive) | GI50 [22]: 17 µM (inactive) | GI50 [23]: 17 µM (inactive) | GI50 [24]: 6.28 µM (inactive) | GI50 [25]: 10.5 µM (inactive) | GI50 [26]: 16.4 µM (inactive) | GI50 [27]: 0.129 µM (active) | GI50 [28]: 14.8 µM (inactive) | GI50 [29]: 14 µM (inactive) | GI50 [30]: 16.8 µM (inactive) | GI50 [31]: 14.3 µM (inactive) | GI50 [32]: 14.7 µM (inactive) | GI50 [58]: 13.2 µM (inactive) | GI50 [33]: 16.9 µM (inactive) | GI50 [34]: 11.6 µM (inactive) | GI50 [35]: 14 µM (inactive) | GI50 [36]: 3.04 µM (inactive) | GI50 [37]: 16.7 µM (inactive) | GI50 [38]: 18.3 µM (inactive) | GI50 [41]: 16 µM (inactive) | GI50 [42]: 25.5 µM (inactive) | GI50 [43]: 17.9 µM | GI50 [44]: 15.4 µM (inactive) | GI50 [45]: 15 µM (inactive) | GI50 [46]: 14.9 µM (inactive) | GI50 [47]: 15.9 µM (inactive) | GI50 [48]: 11.2 µM (inactive) | GI50 [49]: 14.8 µM (inactive) | GI50 [59]: 16.5 µM (inactive) | GI50 [50]: 15.4 µM (inactive) | GI50 [51]: 1.44 µM (inactive) | GI50 [52]: 4.72 µM (inactive) | GI50 [53]: 14.6 µM (inactive) | GI50 [54]: 16.3 µM (inactive)
